Reference: patent US12225917B2 (priority 2017, dated 2025)

Legend:
[1] = Tissue residue study by LC-MS/MS after in-feed administration (Example 7): muscle and liver; details: for Mean residue, Breast / Mean residue, Lower leg / Mean residue, Upper leg / Mean residue IRP001, Liver: n = 3
Clostridium Difficile = assay: In vitro MIC and MBC against Clostridium difficile (Example 6); format: cell-based; details: Clostridioides difficile, clinical isolate of C. difficile; test agent Berberine sulfate
Clostridium Perfringens = assay: microbe, parasite or virus in culture
[2] = test system: Eimeria acervulina, E. maxima, and E. tenella; assay: Anticoccidial efficacy/sensitivity cage study (Example 9): lesion scores, oocysts per gram fecal material, coccidiosis mortality; details: for % Cocci Mort.: Day 0-20, infected
[3] = General safety in broilers reared to market weight by histology (Example 8); format: in vivo, broiler chickens
Source text: This study evaluates the safety of IRP001 chloride in broilers through examination of histology.
The objective of this study was to test the general safety of IRP001 chloride in broilers reared to market weight by examination of histology.
The experiment consisted of the following treatments (1 pen per treatment, Table 54).
Birds were kept in a pen having an area of 4×10=40 ft^2, with clean wood shavings as bedding with a thickness of approximately 4 inches. The pen had 5 feet high side walls with a bottom 1 ½ feet being of solid wood to prevent bird migration.
The temperature of the building was monitored. Environmental conditions during the trial (temperature) were appropriate (optimum) to the age of the animals. Illumination was provided by fluorescent bulbs placed above the pens. The diets were provided ad libitum in one tube-type feeder per pen. From D0 until D7, feed was also supplied on a tray placed on the litter of each pen. Water was provided ad libitum from one Plasson drinker per pen.
Standard floor pen management practices were used throughout the experiment. Animals and housing facilities were inspected twice daily, observing and recording the general health status, constant feed and water supply as well as temperature, removing all dead birds, and recognizing unexpected events. Birds found dead during the study were noted on the Daily Mortality Record, and were not replaced. Pen number, the date of mortality, sex, weight, and diagnosis were recorded.
Day of hatch male Cobb chicks were obtained and ten male broiler chicks were placed in each pen. Accountabilities of all test animals and any extra birds were recorded on animal disposition form. The birds were sexed at the hatchery. The breeder flock history and vaccination record at the hatchery were recorded. Bird weights by pen were recorded on D0 and 42.
All weights were by pen. Treatment Starter feed was fed from D0 to 21. On D21, non-consumed Starter was weighed by pen and discarded. Grower feed was issued and fed until D35. On D35, non-consumed Grower was weighed by pen and discarded. Finisher feed was fed until D42. On D42, non-consumed Finisher was weighed by pen and discarded.
On the day of study completion (D42), five birds from each pen were humanly euthanized and upper, mid and lower gut sections plus liver lobe were collected and stored in neutral buffered formalin. Theses samples were shipped for analysis.

E. coli causing scour = assay: In vitro MIC against pig disease strains incl. scour-inducing E. coli (Example 5); format: cell-based; details: Escherichia coli
[4] = Group 1, 0.03 g/kg IRP001 in feed (0-35 days), 0 days of washout
[5] = Group 2, 0.03 g/kg IRP001 in feed (0-35 days), 1 day of washout
[6] = Group 3, 0.03 g/kg IRP001 in feed (0-35 days), 2 days of washout
[7] = Group 4, 0.03 g/kg IRP001 in feed (0-35 days), 4 days of washout
[8] = Group 5, 0.03 g/kg IRP001 in feed (0-35 days), 7 days of washout
[9] = Group 6, 0.03 g/kg IRP001 in feed (0-28 days), 14 days of washout
[10] = Group 11, 0.3 g/kg IRP001 in feed (0-35 days), 7 days of washout
[11] = Group 12, 0.3 g/kg IRP001 in feed (0-28 days), 14 days of washout
[12] = IRP001 0.05 g/kg in feed, pen 2

**Q.** With `COc1ccc2cc3[n+](cc2c1OC)CCc1cc2c(cc1-3)OCO2` [Berberine, berberine] as the compound, how does the “residue level in liver” value ([1]; 0.03 g/kg feed, before and after washout) read?
**A.** below the limit of detection

**Q.** What about the “mean residue level in muscle tissues” value ([1]; 0.03 g/kg feed, with or without washout) of the same compound?
**A.** not detectable

**Q.** And the “residue level in muscle tissues (breast, lower leg, upper leg)” value ([1]; 0.3 g/kg feed, after 4 days washout, listed as IRP001)?
**A.** below the LLOD

**Q.** And the “residue level in liver” value ([1]; 0.3 g/kg feed, after a 14-day washout)?
**A.** below the limit of quantitation

**Q.** What about the “Mean residue, Breast” value [1, 4] of the same compound?
**A.** <LLOD (outputs indicating values lower than 2 ng/g are considered to be within baseline noise, below the LLOD, and as such are not detectable)

**Q.** And the “Mean residue, Lower leg” value [1, 4]?
**A.** <LLOD (outputs indicating values lower than 2 ng/g are considered to be within baseline noise, below the LLOD, and as such are not detectable)

**Q.** What about the “Mean residue, Upper leg” value [1, 4] of the same compound?
**A.** <LLOD (outputs indicating values lower than 2 ng/g are considered to be within baseline noise, below the LLOD, and as such are not detectable)

**Q.** And the “Mean residue, Breast” value [1, 5]?
**A.** <LLOD (outputs indicating values lower than 2 ng/g are considered to be within baseline noise, below the LLOD, and as such are not detectable)

**Q.** And the “Mean residue, Lower leg” value [1, 5]?
**A.** <LLOD (outputs indicating values lower than 2 ng/g are considered to be within baseline noise, below the LLOD, and as such are not detectable)

**Q.** And the “Mean residue, Upper leg” value [1, 5]?
**A.** <LLOD (outputs indicating values lower than 2 ng/g are considered to be within baseline noise, below the LLOD, and as such are not detectable)

**Q.** And the “Mean residue, Breast” value [1, 6]?
**A.** <LLOD (outputs indicating values lower than 2 ng/g are considered to be within baseline noise, below the LLOD, and as such are not detectable)

**Q.** And the “Mean residue, Lower leg” value [1, 6]?
**A.** <LLOD (outputs indicating values lower than 2 ng/g are considered to be within baseline noise, below the LLOD, and as such are not detectable)

**Q.** And the “Mean residue, Upper leg” value [1, 6]?
**A.** <LLOD (outputs indicating values lower than 2 ng/g are considered to be within baseline noise, below the LLOD, and as such are not detectable)

**Q.** And the “Mean residue, Breast” value [1, 7]?
**A.** <LLOD (outputs indicating values lower than 2 ng/g are considered to be within baseline noise, below the LLOD, and as such are not detectable)

**Q.** What about the “Mean residue, Lower leg” value [1, 7] of the same compound?
**A.** <LLOD (outputs indicating values lower than 2 ng/g are considered to be within baseline noise, below the LLOD, and as such are not detectable)

**Q.** What about the “Mean residue, Upper leg” value [1, 7] of the same compound?
**A.** <LLOD (outputs indicating values lower than 2 ng/g are considered to be within baseline noise, below the LLOD, and as such are not detectable)

**Q.** And the “Mean residue, Breast” value [1, 8]?
**A.** <LLOD (outputs indicating values lower than 2 ng/g are considered to be within baseline noise, below the LLOD, and as such are not detectable)

**Q.** What about the “Mean residue, Lower leg” value [1, 8] of the same compound?
**A.** <LLOD (outputs indicating values lower than 2 ng/g are considered to be within baseline noise, below the LLOD, and as such are not detectable)

**Q.** And the “Mean residue, Upper leg” value [1, 8]?
**A.** <LLOD (outputs indicating values lower than 2 ng/g are considered to be within baseline noise, below the LLOD, and as such are not detectable)

**Q.** And the “Mean residue, Breast” value [1, 9]?
**A.** <LLOD (outputs indicating values lower than 2 ng/g are considered to be within baseline noise, below the LLOD, and as such are not detectable)

**Q.** And the “Mean residue, Lower leg” value [1, 9]?
**A.** <LLOD (outputs indicating values lower than 2 ng/g are considered to be within baseline noise, below the LLOD, and as such are not detectable)

**Q.** And the “Mean residue, Upper leg” value [1, 9]?
**A.** <LLOD (outputs indicating values lower than 2 ng/g are considered to be within baseline noise, below the LLOD, and as such are not detectable)

**Q.** And the “Mean residue, Breast” value ([1]; Group 10, 0.3 g/kg IRP001 in feed (0-35 days), 4 days of washout)?
**A.** <LLOD (outputs indicating values lower than 2 ng/g are considered to be within baseline noise, below the LLOD, and as such are not detectable)

**Q.** And the “Mean residue, Breast” value [1, 10]?
**A.** <LLOD (outputs indicating values lower than 2 ng/g are considered to be within baseline noise, below the LLOD, and as such are not detectable)

**Q.** What about the “Mean residue, Lower leg” value [1, 10] of the same compound?
**A.** <LLOD (outputs indicating values lower than 2 ng/g are considered to be within baseline noise, below the LLOD, and as such are not detectable)

**Q.** And the “Mean residue, Upper leg” value [1, 10]?
**A.** <LLOD (outputs indicating values lower than 2 ng/g are considered to be within baseline noise, below the LLOD, and as such are not detectable)

**Q.** What about the “Mean residue, Breast” value [1, 11] of the same compound?
**A.** <LLOD (outputs indicating values lower than 2 ng/g are considered to be within baseline noise, below the LLOD, and as such are not detectable)

**Q.** What about the “Mean residue, Lower leg” value [1, 11] of the same compound?
**A.** <LLOD (outputs indicating values lower than 2 ng/g are considered to be within baseline noise, below the LLOD, and as such are not detectable)

**Q.** And the “Mean residue, Upper leg” value [1, 11]?
**A.** <LLOD (outputs indicating values lower than 2 ng/g are considered to be within baseline noise, below the LLOD, and as such are not detectable)

**Q.** And the “maximum acceptable residue (lower than one in a million risk of cancer)” value ([1]; estimated from typical lifetime consumption of chicken meat, breast or leg muscle tissue)?
**A.** 13 ng berberine per gram of chicken meat

**Q.** What about the “Mean residue IRP001, Liver” value ([1]; 0.03 g/kg IRP001 in feed days 0-28, 14 days of washout, euthanasia day 42) of the same compound?
**A.** <LLOD (outputs indicating values lower than 2 ng/g are considered to be within baseline noise, below the LLOD, and as such are not detectable)

**Q.** What about the “Mean residue IRP001, Liver” value ([1]; 0.03 g/kg IRP001 in feed days 0-35, 0 days of washout, euthanasia day 35) of the same compound?
**A.** <LLOD (outputs indicating values lower than 2 ng/g are considered to be within baseline noise, below the LLOD, and as such are not detectable)

**Q.** And the “Mean residue IRP001, Liver” value ([1]; 0.03 g/kg IRP001 in feed days 0-35, 1 day of washout, euthanasia day 36)?
**A.** <LLOD (outputs indicating values lower than 2 ng/g are considered to be within baseline noise, below the LLOD, and as such are not detectable)

**Q.** What about the “Mean residue IRP001, Liver” value ([1]; 0.03 g/kg IRP001 in feed days 0-35, 2 days of washout, euthanasia day 37) of the same compound?
**A.** <LLOD (outputs indicating values lower than 2 ng/g are considered to be within baseline noise, below the LLOD, and as such are not detectable)

**Q.** What about the “Mean residue IRP001, Liver” value ([1]; 0.03 g/kg IRP001 in feed days 0-35, 4 days of washout, euthanasia day 39) of the same compound?
**A.** <LLOD (outputs indicating values lower than 2 ng/g are considered to be within baseline noise, below the LLOD, and as such are not detectable)

**Q.** And the “Mean residue IRP001, Liver” value ([1]; 0.03 g/kg IRP001 in feed days 0-35, 7 days of washout, euthanasia day 42)?
**A.** <LLOD (outputs indicating values lower than 2 ng/g are considered to be within baseline noise, below the LLOD, and as such are not detectable)

**Q.** And the MBC (Clostridium Difficile)?
**A.** 1000 µg/mL

**Q.** What about the MBC (Clostridium Perfringens) of the same compound?
**A.** 125 µg/mL

**Q.** What about the MIC (Clostridium Perfringens) of the same compound?
**A.** 62.5 to 125 µg/mL

**Q.** What about the inhibition at 125 µg/mL (Clostridium Perfringens; read-out: killing of viable cells) of the same compound?
**A.** 100%

**Q.** What about the “% Cocci Mort.” value ([2]; IRP001 0.03 g/kg) of the same compound?
**A.** 0.0b %

**Q.** And the “% Cocci Mort.” value ([2]; IRP001 0.10 g/kg)?
**A.** 0.0b %

**Q.** And the “Lesion Scores Average” value ([2]; IRP001 0.03 g/kg)?
**A.** 1.8b

**Q.** And the “Lesion Scores E. acer.” value ([2]; IRP001 0.03 g/kg)?
**A.** 2.3b

**Q.** And the “Lesion Scores E. maxima” value ([2]; IRP001 0.03 g/kg)?
**A.** 1.8bc

**Q.** What about the “Lesion Scores E. tenella” value ([2]; IRP001 0.03 g/kg) of the same compound?
**A.** 1.2ab

**Q.** And the “Lesion Scores Average” value ([2]; IRP001 0.10 g/kg)?
**A.** 1.5bc

**Q.** What about the “Lesion Scores E. acer.” value ([2]; IRP001 0.10 g/kg) of the same compound?
**A.** 2.1bc

**Q.** What about the “Lesion Scores E. maxima” value ([2]; IRP001 0.10 g/kg) of the same compound?
**A.** 1.5bcd

**Q.** What about the “Lesion Scores E. tenella” value ([2]; IRP001 0.10 g/kg) of the same compound?
**A.** 0.8bcd

**Q.** And the “adverse reaction or unanticipated event” value ([3]; 1 g berberine in 1 kg of commercial feed over 42 days)?
**A.** no adverse reaction or unanticipated event has been observed

**Q.** What about the “Histology index: Coccidia” value [3, 12] of the same compound?
**A.** 3.2

**Q.** What about the “Histology index: Cumulative Pathology” value [3, 12] of the same compound?
**A.** 9.6

**Q.** What about the “Histology index: Enteritis” value [3, 12] of the same compound?
**A.** 6.4

**Q.** What about the “Histology index: Coccidia” value ([3]; IRP001 0.5 g/kg in feed, pen 3) of the same compound?
**A.** 1.6

**Q.** And the “Histology index: Cumulative Pathology” value ([3]; IRP001 0.5 g/kg in feed, pen 3)?
**A.** 7.6

**Q.** What about the “Histology index: Enteritis” value ([3]; IRP001 0.5 g/kg in feed, pen 3) of the same compound?
**A.** 6.0

**Q.** And the “Histology index: Coccidia” value ([3]; IRP001 1 g/kg in feed, pen 4)?
**A.** 1.0

**Q.** What about the “Histology index: Cumulative Pathology” value ([3]; IRP001 1 g/kg in feed, pen 4) of the same compound?
**A.** 9.2

**Q.** And the “Histology index: Enteritis” value ([3]; IRP001 1 g/kg in feed, pen 4)?
**A.** 8.2

**Q.** What about the MIC (E. coli causing scour) of the same compound?
**A.** 125 µg/mL
